# Source: US8475850B2, “Methods and compositions for heavy metal detoxification” (priority 2007, dated 2013)
# Read-outs that look alike come from different tables or passages of the source.
# Key:
# [1] = system: metallothionein (hMT1&2 and hMT1&2alt); details: for MT gene expression increased over DMSO control: text summary of Table 7
# HMOX1 = details: for HMOX1 gene expression increased over DMSO control: text summary of Table 7
# GST = GST activity assay in RL-34 cell lysate after treatment; format: cell-based, rat; details: RL-34 cell line
# [2] = system: heme oxygenase (HO-1) promoter; assay: heme oxygenase (HO-1) luciferase reporter in the HepG2 cell line; details: thirty percent induction over DMSO control is considered as active
# NQO1 = assay: NADPH quinone oxido reductase (NQO1) activity assay in RL-34 cell lysate after treatment; format: cell-based, rat; details: RL-34 cell line
# GSTA1 and NQO1 = details: for phase II gene expression increased over DMSO control: text summary of Table 7
# Nrf-2 = assay: Western blot of Nrf-2 in the nuclear fraction of HepG2 cells; format: cell-based, human; details: 4 hours, FIGS. 3 and 4
# Method: The HepG2 cell line was cultured as above and test compounds were added for four hours, after which the cells were lysed and the nuclear fraction was isolated (Dignam, J. D., R. M. Lebovitz, and R. G. Roeder, Nucleic Acids Res, 11(5): 1475-89, 1983). Total protein concentration was determined using the Bicinchoninic Acid Kit (Sigma). […] (60 μg total protein) were electrophoresed and detection of Nrf-2 was performed using primary antibody incubation overnight at 4° C. (Santa Cruz Biotechnology, Inc, Santa Cruz, Calif.). Secondary antibody linked to horseradish peroxidase was incubated for one h (GE Healthcare, Piscataway, N.J.), after which proteins were visualized using the enhanced chemiluminescence (ECL) system. Densitometry was performed using Kodak Molecular Imaging Software v.4.0 (Eastman Kodak Company, Rochester, N.Y.) measuring the net intensity of the band.
structure (smiles),measurement,setting,value
COc1cc(O)c(CC=C(C)C)c(O)c1C(=O)/C=C/c1ccc(O)cc1 [Xanthohumol],MT gene expression increased over DMSO control,[1]; HepG2 cells,≥ 20%
same,HMOX1 gene expression increased over DMSO control,HMOX1; HepG2 cells,≥ 20%
same,GST activity induced over DMSO control,GST; 1 μg/ml,≥ 20%
same,expression of heme oxygenase promoter activity (in words),[2],induced
same,NQO1 enzymatic activity induced over DMSO control,NQO1; 1 μg/ml,≥ 20%
Oc1ccc(C=Cc2cc(O)cc(O)c2)cc1 [Resveratrol],NQO1 enzymatic activity induced over DMSO control,NQO1; 20 μg/ml,≥ 20%
"COc1cc(C=CC(=O)CC(=O)C=Cc2ccc(O)c(OC)c2)ccc1O [Curcumin, 1,7-Bis(4-hydroxy-3-methoxyphenyl)hepta-1,6-diene-3,5-dione]",HMOX1 gene expression increased over DMSO control,HMOX1; HepG2 cells,≥ 20%
same,phase II gene expression increased over DMSO control,GSTA1 and NQO1; HepG2 cells,≥ 20%
same,expression of heme oxygenase promoter activity (in words),[2],induced
same,NQO1 enzymatic activity induced over DMSO control,NQO1; 5 μg/ml,≥ 20%
[Cl][Cd][Cl] [CdCl2],MT gene induction (in words),"[1]; HepG2 cells, controls",induce
same,HMOX1 gene induction (in words),"HMOX1; HepG2 cells, controls",induce
same,Phase II (ave) Ratio to DMSO,"GSTA1 and NQO1; HepG2 cells, 8 hours, 40 uM, average of GSTA1 and NQO1",0.94
same,phase II gene induction (in words),"GSTA1 and NQO1; HepG2 cells, controls",unable to increase
OCc1c[nH]c2ccccc12 [I3C],NQO1 enzymatic activity induced over DMSO control,NQO1; 25 μg/ml,≥ 20%
O=C(/C=C/c1ccc(O)c(O)c1)O[C@@H]1C[C@](O)(C(=O)O)C[C@@H](O)[C@H]1O [chlorogenic acid],NQO1 enzymatic activity induced over DMSO control,NQO1; 25 μg/ml,≥ 20%
c1ccc2c(Cc3c[nH]c4ccccc34)c[nH]c2c1 [DIM],NQO1 enzymatic activity induced over DMSO control,NQO1; 25 μg/ml,≥ 20%
COc1ccc2cc3[n+](cc2c1OC)CCc1cc2c(cc1-3)OCO2 [Berberine],NQO1 enzymatic activity induced over DMSO control,NQO1; 20 μg/ml,≥ 20%
[Cl-].[Cl-].[Zn+2] [ZnCl2],Phase II (ave) Ratio to DMSO,"GSTA1 and NQO1; HepG2 cells, 8 hours, 10 μg/ml, average of GSTA1 and NQO1",0.94
same,expression of heme oxygenase promoter activity (in words),[2],induced
C[S+]([O-])CCCCN=C=S (stereo not shown) [Sulforaphane],MT 1.2 (ave) Ratio to DMSO,[1],0.87
same,MT gene induction (in words),[1],but not MT
same,HMOX1 gene induction (in words),HMOX1,increased
same,GST activity induced over DMSO control,GST; 3 μg/ml,≥ 20%
same,Nrf-2 nuclear translocation (in words),Nrf-2,dramatic increase
same,Phase II (ave) Ratio to DMSO,GSTA1 and NQO1,1.64
same,phase II gene induction (in words),GSTA1 and NQO1,increased
same,expression of heme oxygenase promoter activity (in words),[2],induced
same,NQO1 enzymatic activity induced over DMSO control,NQO1; 3 μg/ml,≥ 20%
CC1(C)CC[C@]2(C(=O)O)CC[C@]3(C)C(=CC[C@@H]4[C@@]5(C)CC[C@H](O)C(C)(C)[C@@H]5CC[C@]43C)[C@@H]2C1 [Oleanolic acid],MT gene expression increased over DMSO control,[1]; HepG2 cells,≥ 20%
same,expression of heme oxygenase promoter activity (in words),[2],induced
same,NQO1 enzymatic activity induced over DMSO control,NQO1; 25 μg/ml,≥ 20%
O=c1c(O)c(-c2ccc(O)c(O)c2)oc2cc(O)cc(O)c12 [Quercitin],NQO1 enzymatic activity induced over DMSO control,NQO1; 20 μg/ml,≥ 20%
O=c1oc2c(O)c3oc(=O)c4c5c(oc(=O)c6cc(O)c(O)c(O)c65)c(O)c5oc(=O)c(c2c2c(O)c(O)c(O)cc12)c3c54 [Terminalin],expression of heme oxygenase promoter activity (in words),[2],induced
O=c1c(-c2ccc(O)cc2)coc2cc(O)cc(O)c12 [Bonistein],NQO1 enzymatic activity induced over DMSO control,NQO1; 20 μg/ml,≥ 20%
C=C1C(=O)O[C@H]2[C@H]1CC/C(C)=C/CC[C@@]1(C)O[C@@H]21 [Parthenolide],NQO1 enzymatic activity induced over DMSO control,NQO1; 20 μg/ml,≥ 20%
"C=C1CC[C@@H]2[C@](C)(CO)[C@H](O)CC[C@@]2(C)[C@@H]1C/C=C1/C(=O)OC[C@H]1O [Andrographis, 3-(2-(Decahydro-6-hydroxy-5-(hydroxymethyl)-5,8a-dimethyl-2-methylenenaphthyl)ethylidene)dihydro-4-hydroxyfuran-2(3H)-one]",HMOX1 gene expression increased over DMSO control,HMOX1; HepG2 cells,≥ 20%
same,GST activity induced over DMSO control,GST; 25 μg/ml,≥ 20%
same,phase II gene expression increased over DMSO control,GSTA1 and NQO1; HepG2 cells,≥ 20%
same,NQO1 enzymatic activity induced over DMSO control,NQO1; 25 μg/ml,≥ 20%
